Results on 24 compounds are retold here after patent US9296745B2, “Diacylglycerol acyltransferase 2 inhibitors” (Pfizer Inc., priority 2012, dated 2016).

For the experiment, the target named is Human DGAT2 (hDGAT2) (Homo sapiens (Human), UniProt Q96PD7). Description: In vitro DGAT2 assay, IC50 determination with hDGAT2 membrane fraction. Particulars: geometric mean. The format is biochemical. The protocol: Recombinant baculovirus for the FLAG-tagged hDGAT2 was generated in SF9 insect cells using Bac-to-Bac baculovirus expression system (Invitrogen) according to the manufacturer's protocol. For the expression of hDGAT2, SF9 cells (20 L) grown in Sf900II media were infected with hDGAT2 baculovirus at a multiplicity of infection of 1 in a Wave Bioreactor System 20/50P wave bag (GE Healthcare). After 40 hours of infection, the cells were then harvested by centrifugation at 5,000×g. The cell pellets were washed by resuspending in phosphate buffered saline (PBS) and collected by centrifugation at 5,000×g. The cell paste was flash frozen in liquid N2 and stored at −80° C. until needed. All operations below were at 4° C. unless otherwise noted. The cells were resuspended in lysis buffer (50 mM Tris-HCl, pH 8.0, 250 mM sucrose) including 1 mM ethylenediaminetetraacetic acid (EDTA) and the complete protease inhibitor cocktail (Roche Diagnostics) at a ratio of 3 ml buffer per 1 g cell paste. The cells were lysed by dounce homogenizer. The cell debris was removed by centrifugation at 1,000×g for 20 min, and the supernatant was centrifuged at 100,000×g for 1 hour. The resulting pellet was rinsed three times by filling ultracentrifuge tubes to the top with ice cold PBS before decanting. The washed pellet was resuspended with gentle stirring for 1 hour in lysis buffer containing 8 mM 3-[(3-cholamidopropyl)dimethylammonio]-1-propanesulfonate (CHAPS) at a ratio of 1 mL buffer per 1 g of original cell paste and centrifuged again at 100,000×g for 1 hour. The resulting supernatant (hDGAT2 membrane fraction) was aliquotted, flash frozen in liquid N2, and stored at −80° C. until use.
To 1 μL of compounds dissolved in 100% DMSO and spotted at the bottom of each well, 5 μL of 0.04% bovine serum albumin (BSA) (fatty acid free, Sigma Aldrich) was added and the mixture was incubated at room temperature for 20 minutes. To this mixture, 10 μL of hDGAT2 membrane fraction (0.01 mg/mL) diluted in 100 mM Hepes-NaOH, pH 7.4, 20 mM MgCl2 containing 200 nM methyl arachidonyl fluorophosphonate (Cayman Chemical; dried from ethyl acetate stock solution under argon gas and dissolved in DMSO as 5 mM stock) was added. […] The reaction mixtures were incubated at room temperature for 40 min and the reactions were stopped by addition of 5 μL of 1% H3PO4. After the addition of 45 μL MicroScint-E (Perkin-Elmer), plates were sealed with Top Seal-A covers (Perkin-Elmer) and phase partitioning of substrates and products was achieved using a HT-91100 microplate orbital shaker (Big Bear Automation, Santa Clara, Calif.). Plates were centrifuged at 2,000×g for 1 min in an Allegra 6R Centrifuge (Beckman Coulter) and then were sealed again with fresh covers before reading in a 1450 Microbeta Wallac Trilux Scintillation Counter (Perkin Elmer). DGAT2 activity was measured by quantifying the generated product [^14C]tridecanoylglycerol in the upper organic phase.
Inhibitors were tested at eleven different concentrations to generate IC50 values for each compound. […] Results are reported as geometric mean IC50 values.

[1] abbreviates: background for complete inhibition of DGAT2 obtained with 50 μM (1R,2R)-2-({3′-Fluoro-4′-[(6-fluoro-1,3-benzothiazol-2-yl)amino]-1,1′-biphenyl-4-yl}carbonyl)cyclopentanecarboxylic acid, read-out: DGAT2 IC50.

Read-outs that look alike come from different tables or passages of the source.

Sequence of Human DGAT2 (hDGAT2) (Q96PD7 whole entry): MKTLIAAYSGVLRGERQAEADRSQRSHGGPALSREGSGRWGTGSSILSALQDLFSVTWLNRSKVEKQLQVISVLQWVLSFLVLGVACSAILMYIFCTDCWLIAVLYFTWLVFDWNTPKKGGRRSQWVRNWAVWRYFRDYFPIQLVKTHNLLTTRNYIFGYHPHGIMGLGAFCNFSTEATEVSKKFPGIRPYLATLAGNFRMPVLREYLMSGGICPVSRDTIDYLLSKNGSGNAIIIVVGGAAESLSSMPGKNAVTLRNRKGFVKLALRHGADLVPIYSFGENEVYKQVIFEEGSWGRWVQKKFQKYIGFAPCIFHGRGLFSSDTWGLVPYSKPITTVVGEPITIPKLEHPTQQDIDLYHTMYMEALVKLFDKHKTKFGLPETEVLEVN

Usually IC50 stands for the concentration needed to halve the response being measured. As for `O=C([C@@H]1CCCN(c2ccc3nc(-c4ccnc(C5CC5)n4)[nH]c3n2)C1)N1CCC[C@@H]1CO` [Example 66, ((R)-1-(2-(2-Cyclopropylpyrimidin-4-yl)-3H-imidazo[4,5-b]pyridin-5-yl)piperidin-3-yl)((R)-2-(hydroxymethyl)pyrrolidin-1-yl)methanone], under setting [1], the IC50 is 1050 nM.

As for `C[C@@H]1CCCN1C(=O)[C@@H]1CCCN(c2ccc3nc(-c4ccnc(C5CC5)n4)[nH]c3n2)C1` [Example 67, ((R)-1-(2-(2-Cyclopropylpyrimidin-4-yl)-3H-imidazo[4,5-b]pyridin-5-yl)piperidin-3-yl)((R)-2-methylpyrrolidin-1-yl)methanone], under setting [1], the IC50 was 58.2 nM.

As for `O=C([C@@H]1CCCN(c2ccc3nc(-c4ccnc(C5CC5)n4)[nH]c3n2)C1)N1C[C@@H](F)[C@H](F)C1` [Example 68, ((R)-1-(2-(2-Cyclopropylpyrimidin-4-yl)-3H-imidazo[4,5-b]pyridin-5-yl)piperidin-3-yl)((3R,4R)-3,4-difluoropyrrolidin-1-yl)methanone], under setting [1], the IC50 was 54.7 nM.

Consider `O=C([C@@H]1CCCN(c2ccc3nc(-c4ccnc(C5CC5)n4)[nH]c3n2)C1)N1CC[C@@H](F)C1` [Example 69, ((R)-1-(2-(2-Cyclopropylpyrimidin-4-yl)-3H-imidazo[4,5-b]pyridin-5-yl)piperidin-3-yl)((R)-3-fluoropyrrolidin-1-yl)methanone], for which the IC50 under setting [1] was 35.4 nM.

With `O=C([C@@H]1CCCN(c2ccc3nc(-c4ccnc(C5CC5)n4)[nH]c3n2)C1)N1CCOCC1` [Example 70, (R)-(1-(2-(2-Cyclopropylpyrimidin-4-yl)-3H-imidazo[4,5-b]pyridin-5-yl)piperidin-3-yl)(morpholino)methanone], the IC50 under setting [1] came out at 162 nM.

On to `CN(C)C(=O)[C@@H]1CCCN(c2ccc3nc(-c4ccnc(C5CC5)n4)[nH]c3n2)C1` [Example 71, (R)-1-(2-(2-Cyclopropylpyrimidin-4-yl)-3H-imidazo[4,5-b]pyridin-5-yl)-N,N-dimethylpiperidine-3-carboxamide], for which, under setting [1], the IC50 came to 1470 nM.

On to `Cc1cnn(C2(c3nc4ccc(N5CCC[C@@H](C(=O)N6CCCC6)C5)nc4[nH]3)CC2)c1` [Example 72], for which the 50% inhibitory concentration (IC50) under setting [1] is 104 nM.

Regarding `O=C([C@@H]1CCCN(c2ccc3nc(C4(n5cc(C6CC6)cn5)CC4)[nH]c3n2)C1)N1CCCC1` [Example 77, (R)-(1-(2-(1-(4-Cyclopropyl-1H-pyrazol-1-yl)cyclopropyl)-3H-imidazo[4,5-b]pyridin-5-yl)piperidin-3-yl)(pyrrolidin-1-yl)methanone], under setting [1], the IC50 was determined as 107 nM.

Turning to `O=C([C@@H]1CCCN(c2ccc3nc(C4(n5cccn5)CC4)[nH]c3n2)C1)N1CCCC1` [Example 79, (R)-(1-(2-(1-(1H-Pyrazol-1-yl)cyclopropyl)-3H-imidazo[4,5-b]pyridin-5-yl)piperidin-3-yl)(pyrrolidin-1-yl)methanone], the 50% inhibitory concentration (IC50) under setting [1] amounted to 230 nM and the IC50 (background for complete inhibition of DGAT2 obtained with Example 196-A instead of the cyclopentanecarboxylic acid reference, read-out: DGAT2 IC50 (nM), values in the parentheses) turned out to be 238 nM.

As to `O=C([C@@H]1CCCN(c2ccc3nc(C4(n5cccn5)CCC4)[nH]c3n2)C1)N1CCCC1` [Example 80, (R)-(1-(2-(1-(1H-Pyrazol-1-yl)cyclobutyl)-3H-imidazo[4,5-b]pyridin-5-yl)piperidin-3-yl)(pyrrolidin-1-yl)methanone], the IC50 under setting [1] is 1400 nM.

As for `O=C([C@@H]1CCCN(c2ccc3nc(-c4nc(C5CC5)cs4)[nH]c3n2)C1)N1CCCC1` [Example 84, (R)-(1-(2-(4-Cyclopropylthiazol-2-yl)-3H-imidazo[4,5-b]pyridin-5-yl)piperidin-3-yl)(pyrrolidin-1-yl)methanone], under setting [1], the IC50 was determined as 9.55 nM.

Regarding `O=C([C@@H]1CCCN(c2ccc3nc(C4(Cc5ccccc5)COC4)[nH]c3n2)C1)N1CCCC1` [Example 85, (R)-(1-(2-(3-Benzyloxetan-3-yl)-3H-imidazo[4,5-b]pyridin-5-yl)piperidin-3-yl)(pyrrolidin-1-yl)methanone], the IC50 under setting [1] turned out to be 1160 nM.

For the compound `Cc1cc(C2(c3nc4ccc(N5CCC[C@@H](C(=O)N6CCCC6)C5)nc4[nH]3)CC2)on1` [Example 86, (R)-(1-(2-(1-(3-Methylisoxazol-5-yl)cyclopropyl)-3H-imidazo[4,5-b]pyridin-5-yl)piperidin-3-yl)(pyrrolidin-1-yl)methanone], under setting [1], the IC50 was 288 nM.

Turning to `Cc1cc(C2(c3nc4ccc(N5CCC[C@@H](C(=O)N6CCCC6)C5)nc4[nH]3)CC2)no1` [Example 87, (R)-(1-(2-(1-(5-Methylisoxazol-3-yl)cyclopropyl)-3H-imidazo[4,5-b]pyridin-5-yl)piperidin-3-yl)(pyrrolidin-1-yl)methanone], under setting [1], the IC50 came out at 102 nM.

With `O=C([C@@H]1CCCN(c2ccc3nc(C4(c5cccnc5)CCC4)[nH]c3n2)C1)N1CCCC1` [Example 88, (R)-(1-(2-(1-(Pyridin-3-yl)cyclobutyl)-3H-imidazo[4,5-b]pyridin-5-yl)piperidin-3-yl)(pyrrolidin-1-yl)methanone], under setting [1], the IC50 turned out to be 190 nM.

In the case of `Cc1ccn(C2(c3nc4ccc(N5CCC[C@@H](C(=O)N6CCCC6)C5)nc4[nH]3)CC2)n1` [Example 89, (R)-(1-(2-(1-(3-Methyl-1H-pyrazol-1-yl)cyclopropyl)-3H-imidazo[4,5-b]pyridin-5-yl)piperidin-3-yl)(pyrrolidin-1-yl)methanone], the IC50 under setting [1] was 546 nM.

`Cc1ccnn1C1(c2nc3ccc(N4CCC[C@@H](C(=O)N5CCCC5)C4)nc3[nH]2)CC1` [Example 90, (R)-(1-(2-(1-(5-methyl-1H-pyrazol-1-yl)cyclopropyl)-3H-imidazo[4,5-b]pyridin-5-yl)piperidin-3-yl)(pyrrolidin-1-yl)methanone]: the IC50 under setting [1] is 315 nM.

Take `COc1ccccc1C1(c2nc3ccc(N4CCC[C@@H](C(=O)N5CCCC5)C4)nc3[nH]2)CC1` [Example 92, (R)-(1-(2-(1-(2-Methoxyphenyl)cyclopropyl)-3H-imidazo[4,5-b]pyridin-5-yl)piperidin-3-yl)(pyrrolidin-1-yl)methanone]: the IC50 under setting [1] was 242 nM.

For the compound `O=C([C@@H]1CCCN(c2ccc3nc(C4(c5ccon5)CC4)[nH]c3n2)C1)N1CCCC1` [Example 93, (R)-(1-(2-(1-(Isoxazol-3-yl)cyclopropyl)-3H-imidazo[4,5-b]pyridin-5-yl)piperidin-3-yl)(pyrrolidin-1-yl)methanone], the IC50 under setting [1] was found to be 202 nM.

As for `CCOC(=O)c1cc(OC)nc(-c2nc3ccc(N4CCC[C@@H](C(=O)N5CCCC5)C4)nc3[nH]2)c1` [Example 96, (R)-Ethyl 2-methoxy-6-(5-(3-(pyrrolidine-1-carbonyl)piperidin-1-yl)-3H-imidazo[4,5-b]pyridin-2-yl)isonicotinate], the IC50 under setting [1] stood at 37.3 nM.

Regarding `Cc1cccc(C2(c3nc4ccc(N5CCC[C@@H](C(=O)N6CCCC6)C5)nc4[nH]3)CC2)c1` [Example 97, (R)-Pyrrolidin-1-yl(1-(2-(1-m-tolylcyclopropyl)-3H-imidazo[4,5-b]pyridin-5-yl)piperidin-3-yl)methanone], under setting [1], the IC50 is 96.9 nM.

On to `O=C([C@@H]1CCCN(c2ccc3nc(-c4cc(C5CC5)ccn4)[nH]c3n2)C1)N1CCCC1` [Example 98, (R)-(1-(2-(4-Cyclopropylpyridin-2-yl)-3H-imidazo[4,5-b]pyridin-5-yl)piperidin-3-yl)(pyrrolidin-1-yl)methanone], for which, under setting [1], the IC50 was found to be 94.4 nM.

Take `O=C([C@@H]1CCCN(c2ccc3nc(-c4nccc(C5CC5)n4)[nH]c3n2)C1)N1CCCC1` [Example 99, (R)-(1-(2-(4-Cyclopropylpyrimidin-2-yl)-3H-imidazo[4,5-b]pyridin-5-yl)piperidin-3-yl)(pyrrolidin-1-yl)methanone]: under setting [1], the IC50 was 72.5 nM.

On to `CNS(=O)(=O)c1cncc(-c2nc3ccc(N4CCC[C@@H](C(=O)N5CCCC5)C4)nc3[nH]2)c1` [Example 100, (R)-N-Methyl-5-(5-(3-(pyrrolidine-1-carbonyl)piperidin-1-yl)3H-imidazo[4,5-b]pyridin-2-yl)pyridine-3-sulfonamide], for which the IC50 under setting [1] came out at 47.8 nM.
